The numbers were not newly measured in patent US20130096316A1, “Novel Method for Preparation of Bisnorcymerine and Salts Thereof” (QR PHARMA, INC., priority 2011, published 2013), which cites them from elsewhere.

Molecules are shown by their SMILES.

The target of this series is human BChE (Homo sapiens, UniProt P06276). Conditions: ratio of the AChE IC50 to the BChE IC50; cited from Yu et al., 1999.
Chain of human BChE (P06276 29-602): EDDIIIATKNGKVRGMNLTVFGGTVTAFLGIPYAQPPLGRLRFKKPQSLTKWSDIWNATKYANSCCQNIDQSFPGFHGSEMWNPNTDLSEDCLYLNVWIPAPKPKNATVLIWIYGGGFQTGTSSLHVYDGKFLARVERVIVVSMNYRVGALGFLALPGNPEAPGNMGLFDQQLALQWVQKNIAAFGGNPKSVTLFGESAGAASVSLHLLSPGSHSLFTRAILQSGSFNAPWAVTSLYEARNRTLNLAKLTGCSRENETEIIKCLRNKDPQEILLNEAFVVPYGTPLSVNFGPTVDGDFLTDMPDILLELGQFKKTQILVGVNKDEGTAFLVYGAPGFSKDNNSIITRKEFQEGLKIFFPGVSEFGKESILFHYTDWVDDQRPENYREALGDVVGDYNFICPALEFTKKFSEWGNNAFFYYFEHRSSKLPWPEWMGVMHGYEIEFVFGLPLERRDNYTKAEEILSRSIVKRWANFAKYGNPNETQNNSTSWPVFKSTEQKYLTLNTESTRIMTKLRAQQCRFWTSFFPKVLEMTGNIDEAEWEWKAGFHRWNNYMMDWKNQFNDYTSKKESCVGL

As to `CC(C)c1ccc(NC(=O)Oc2ccc3c(c2)[C@]2(C)CCNC2N3)cc1` (stereo partly drawn) [Compound 1, (3aS)-3a-methyl-1,2,3,3a,8,8a-hexahydropyrrolo[2,3-b]indol-5-yl (4-isopropylphenyl)carbamate], the “selectivity for inhibition of BChE as compared to AChE” value is listed as 110 fold.
